We go through nine compounds from patent US6869950B1, “Benzimidazole derivatives” (Fujisawa Pharmaceutical Co., Ltd., priority 1998, dated 2005).

For orientation: melting point means the temperature, or range, at which the solid turns liquid.

One data set concerns db/db mice. The data set can be described thus: Activity of decreasing blood sugar using db/db mice. The class given is in vivo. The conditions noted are these: female db/db mice, 1 mg/kg, compound mixed with powdered chow, 14 days; difference between db/db and +/+ mouse defined as 100%. The text has this: <Activity of Decreasing Blood Sugar Using db/db Mice>
• 1-(2-Chloro-4-(n-pentyloxy)benzyl)-2-methyl-6-((4-methylbenzene)sulfonylcarbamoyl)benzimidazole—Compound(15) • 6-((N-1-butylaminosulfonyl)carbamoyl)-1-(2-chloro-4-phenylbenzyl)-2-methylbenzimidazole—Compound(76) Animal Used
Five-week-old female mice [C57BL/KsJ-dbm db+/db+, C57BL/KsJ-dbm +m/+m (Jackson Laboratory)] were purchased, and were kept for 2 to 3 weeks. Then, these mice were used in the test.
A test compound was mixed with a powdered chow (CE-2, made by Nippon Clea) using a mortar. The mixing ratio was 0.01%. The mixed chow was changed twice a week for each group. The feed amount and the remaining amount were recorded, and the intake was calculated from the difference therebetween.
The female db/db mice were grouped according to the body weight, the plasma glucose, and the plasma triglyceride concentrations. Then, the mixture containing the test compound was administered to the mice for 14 days (from 8 to 10 weeks old). In the morning on day 7 and day 14, blood was collected from the orbital venous plexus using heparinized glass capillary tubes (Chase Heparinized Capillary Tubes), and a plasma fraction was obtained through centrifugal separation. Plasma glucose, triglyceride, and insulin concentrations were measured on day 0 and day 14. Plasma glucose and triglyceride concentrations were measured on day 7. The body weight was measured on day 0, day 7, and day 14. After the final collection of the blood, the mice were killed using CO2 gas.
The plasma glucose was measured by a glucose oxidase method (Glucose CII-Test Wako made by Wako Pure Chemical Industries, Ltd.) using from 10 to 15 μl of plasma. The plasma triglyceride concentration was measured by a GPO-p-chlorophenol method (Triglyceride G-Test Wako made by Wako Pure Chemical Industries, Ltd.) or a GPO-DAOS method (Triglyceride E-Test Wako) using from 10 to 15 μl of plasma. The above-mentioned measurements were conducted immediately after the blood collection. The plasma insulin concentration was measured by radioimmunoassay method (Phadesef Insulin RIA Kit made by Cabi Pharmacia) using 20 μl of plasma (which can be stored at −20° C.).
The difference in the plasma glucose and the plasma triglyceride concentrations between the db/db mouse and the +/+ mouse was defined as 100%, and the rate (%) of decrease in the plasma glucose and the plasma triglyceride concentrations of the group to which the test compound was administered was calculated. […]
Consider `CCCCCOc1ccc(Cn2c(C)nc3ccc(C(=O)NS(=O)(=O)c4ccc(C)cc4)cc32)c(Cl)c1` [Compound (15), 1-(2-chloro-4-(n-pentyloxy)benzyl)-2-methyl-6-((4-methylbenzene)sulfonylcarbamoyl)benzimidazole], for which the “rate of decrease in the plasma glucose” value is given as 79% and the “rate of decrease in the plasma triglyceride” value is reported as 69%.

Consider `CCCCNS(=O)(=O)NC(=O)c1ccc2nc(C)n(Cc3ccc(-c4ccccc4)cc3Cl)c2c1` [Compound (76), 6-((N-1-butylaminosulfonyl)carbamoyl)-1-(2-chloro-4-phenylbenzyl)-2-methylbenzimidazole], for which the “rate of decrease in the plasma glucose” value worked out at 71% and the “rate of decrease in the plasma triglyceride” value was 98%.

System in a further data set: not given
Assay: not given
Settings: not given
Consider `CCCCC#Cc1ccc(Cn2c(C)nc3ccc(C(=O)NS(=O)(=O)CCCCC)cc32)c(Cl)c1` [Compound (44), 1-(2-chloro-4-(1-hexyn-1-yl)benzyl)-2-methyl-6-(1-pentanesulfonylcarbamoyl)benzimidazole], for which the melting point lay in the range of 190 to 191 °C.

`CCCCCS(=O)(=O)NC(=O)c1ccc2nc(C)n(Cc3ccc(N4CCOCC4)cc3Cl)c2c1` [Compound (71), 1-(2-chloro-4-morpholinobenzyl)-2-methyl-6-(1-pentanesulfonylcarbamoyl)benzimidazole] had a melting point of 205 to 207 °C.

In turn, `CCCNS(=O)(=O)NC(=O)c1ccc2nc(C)n(Cc3ccc(C(F)(F)F)cc3Cl)c2c1` [Compound (74), 1-(2-chloro-4-(trifluoromethyl)benzyl)-2-methyl-6-((N-1-propylaminosulfonyl)carbamoyl)benzimidazole] displayed a melting point of 202 to 203 °C.

As to `CCCNS(=O)(=O)NC(=O)c1ccc2nc(C)n(Cc3ccc(OCC)cc3Cl)c2c1` [Compound (86), 1-(2-chloro-4-(ethyloxy)benzyl)-2-methyl-6-((N-1-propylaminosulfonyl)carbamoyl)benzimidazole], the melting point lay in the range of 175.3 to 176.2 °C.

Compound `CCCCCOc1ccc(Cn2c(C)nc3ccc(C(=O)NS(=O)(=O)NCCC)cc32)c(Cl)c1` [Compound (89), 1-(2-chloro-4-(pentyloxy)benzyl)-2-methyl-6-((N-1-propylaminosulfonyl)carbamoyl)benzimidazole] registered a melting point of 176.4 to 179.1 °C.

On to `CCNS(=O)(=O)NC(=O)c1ccc2nc(C)n(Cc3ccc(-c4ccco4)cc3Cl)c2c1` [Compound (91), 1-(2-chloro-4-(2-furyl)benzyl)-6-((N-ethylaminosulfonyl)carbamoyl)-2-methylbenzimidazole], for which the melting point was in the range of 190.5 to 192.2 °C.

In turn, `CCCNS(=O)(=O)NC(=O)c1ccc2nc(C)n(Cc3ccc(-c4ccco4)cc3Cl)c2c1` [Compound (92), 1-(2-chloro-4-(2-furyl)benzyl)-2-methyl-6-((N-1-propylaminosulfonyl)carbamoyl)benzimidazole] had a melting point of 177.8 to 180.2 °C.
